# Earlier results in patent US20060110477A1, “Composition and method for supporting and promoting healthy sexual function and prevention and treatment of sexual dysfunction” (priority 2004, published 2006).
# Biological target: rat cGMP-specific PDE5 (Rattus norvegicus, UniProt O54735)
structure (smiles),measurement,setting,value
COc1cc(O)c(CC=C(C)C)c2oc(-c3ccc(O)cc3)c(O)c(=O)c12 [sophoflavescenol],relative potency against cGMP PDE5,among the flavonols in the ethyl acetate fraction,most potent
same,IC50 ratio PDE4/PDE5,selectivity between PDE isoforms,196.2
